Test results taken from patent publication US6632921B1, “Seryl-lysyl-based peptide and peptidomimetic inhibitors of N-myristoyl transferase as anti-infective agents” (G. D Searle & Co, priority 1995, dated 2003).
Like-named read-outs stand apart in the source and are kept apart here. Starred links: 1 amine or outer side, 2 acyl side, 3 side chain; linkers in the order of their positions; H or OH if unused. Positions of bridges follow the written chain, without caps; N, C: chain ends. Non-standard residues stand in square brackets, D forms with d. Residues, ends and D or L forms follow the SMILES beside them. *: point of attachment. Orn(4R-OH,5R-OH) = O=C([C@H](C[C@@H](O)[C@@H](O)N[*:3])N[*:1])[*:2]; hTyr(3S-OH,4S-OH) = N[C@H](C(=O)O)[C@H](O)[C@@H](O)c1ccc(O)cc1; Pro(3S-OH,4S-Me) = C[C@H]1CN[C@H](C(=O)O)[C@H]1O; Benzoyl(4-octyloxy) = CCCCCCCCOc1ccc(C(=O)*)cc1; Hyp = O=C(O)[C@@H]1C[C@@H](O)CN1

Columns and labels:
Test in all cases: Antifungal susceptibility testing, pH 7.0/35° C., 1x10^3 cells/mL
C.tropicalis = type: cell-based; settings: Candida tropicalis
Method: (§1) 2) Assay at pH 7.0/35° C. Incubation/(Candida Strains Only).
(§2) Based on several papers published during 1990-1993 regarding the standardization of testing procedures at multiple research centers, and the finding that, inoculum size, pH of media, and the temperature of incubation drastically affect the antifungal activity of several compounds, particularly in the Azole class of antifungals, an additional assay was configured at pH 7.0 for Candida albicans. [M. A. Pfaller et al, Antimicrobial Agents and Chemotherapy, 34, 1648-1654 (1990); F. C. Odds et al, Antimicrobial Agents and Chemotherapy, 36, 1727-1737 (1992); R. A. Cook et al, Antimicrobial Agents and Chemotherapy, 34, 1542-1545 (1990)]
(§3) The assay format is identical to the first one with the following modifications: C.albicans cells are diluted to 1×10^3 cells/ml into 2× buffered YNB (YNB buffered with 1.65 mM MOPS, pH 7.0, with the addition of 2% Dextrose and 0.08% casamino acids mixture, bio 101. inc,cat #10420-100). Incubation is carried out at 35° C. instead of 30° C., and cell growth is monitored at 590 nm at 24 and 48 hrs as described. All other aspects of the assay are identical. This assay was validated with amphotericin B, fluconazole, cilofungin (Ly-121019), Nikkomycin and terbinafine using the following Candida strains- (C.albicans, B311, C.parasilosis, C.tropicalis, C.lusitaniae, C.glabrata, and C. albicans 516)-Table II. All strains were from Dr. Kobayashi, Washington university.

C.glabrata = type: cell-based; settings: Nakaseomyces glabratus
Method: as §1, §2, §3

C.parasilosis = type: cell-based
Method: as §1, §2, §3

C.albicans, B311 = type: cell-based; settings: Candida albicans
Method: as §1, §2, §3

C.lusitaniae = type: cell-based; settings: Clavispora lusitaniae
Method: as §1, §2, §3

C. albicans 516 = type: cell-based, Candida albicans
Method: as §1, §2, §3

[1] = pH 7.0/35° C./1x10^3 cells/mL, 48 hrs, read-out: EC50 - 48 HRS C.trop.
[2] = pH 7.0/35° C./1x10^3 cells/mL, 48 hrs, read-out: EC50 - 48 HRS C.glab.
[3] = pH 7.0/35° C./1x10^3 cells/mL, 48 hrs, read-out: EC50 - 48 HRS C.para
[4] = B311, pH 7.0/35° C./1x10^3 cells/mL, 48 hrs, read-out: EC50 - 48 HRS C.albicans
[5] = pH 7.0/35° C./1x10^3 cells/mL, 48 hrs, read-out: EC50 - 48 HRS C.lusi.
[6] = Candida albicans, 516, pH 7.0/35° C./1x10^3 cells/mL, 48 hrs, read-out: EC50 - 48 HRS C.albicans (516)

Row | EC50 (C.tropicalis; [1]) | EC50 (C.glabrata; [2]) | EC50 (C.parasilosis; [3]) | EC50 (C.albicans, B311; [4]) | EC50 (C.lusitaniae; [5]) | EC50 (C. albicans 516; [6]) | SMILES | EC50 (C.tropicalis; pH 7, read-out: EC50 - 48 HRS C.trop.) [µM] | EC50 (C.glabrata; pH 7, read-out: EC50 - 48 HRS C.glab.) [µM] | EC50 (C.parasilosis; pH 7, read-out: EC50 - 48 HRS C.para) [µM] | EC50 (C.albicans, B311; B311, pH 7, read-out: EC50 - 48 HRS C.albicans) [µM] | EC50 (C.lusitaniae; pH 7, read-out: EC50 - 48 HRS C.lusi.) [µM] | EC50 (C. albicans 516; Candida albicans, 516, pH 7, read-out: EC50 - 48 HRS C.albicans (516)) [µM]
1 | 2.6 µg/mL | 26 µg/mL | 0.91 µg/mL | 0.71 µg/mL | 0.6 µg/mL | 0.65 µg/mL | OC(Cn1cncn1)(Cn1cncn1)c1ccc(F)cc1F [Fluconazole, fluconazole] |  |  |  |  |  | 
2 | 0.6 µM | 6.1 µM | 32 µM | 0.6 µM | 6.6 µM | 0.6 µM | CCCCCCCCOc1ccc(C(=O)N[C@H]2C[C@@H](O)[C@@H](O)NC(=O)[C@@H]3[C@@H](O)[C@@H](C)CN3C(=O)[C@H]([C@@H](C)O)NC(=O)[C@H]([C@H](O)[C@@H](O)c3ccc(O)cc3)NC(=O)[C@@H]3C[C@@H](O)CN3C(=O)[C@H]([C@@H](C)O)NC2=O)cc1 [Ly 12109, cilofungin] ({Benzoyl(4-octyloxy)}-[Orn(4R-OH,5R-OH)]T[Hyp][hTyr(3S-OH,4S-OH)]T[Pro(3S-OH,4S-Me)]; lactam 1-C) |  |  |  |  |  | 
3 |  |  |  |  |  |  | C[C@@H]([C@H](N)C(=O)N[C@H](C(=O)O)[C@H]1O[C@@H](n2ccc(=O)[nH]c2=O)[C@H](O)[C@@H]1O)[C@H](O)c1ccc(O)cn1 [Nikkomycin] | > 100 | > 100 | 13 | 4.5 | 28 | 11
4 | > 100 µM | > 100 µM | 0.2 µM | 4.4 µM | 0.4 µM | 3.2 µM | CN(C/C=C/C#CC(C)(C)C)Cc1cccc2ccccc12 [Terbinafine, terbinafine] |  |  |  |  |  | 
